± gives the standard deviation of the averaged measurements.
Key:
SPR = SPR (UniProt P35270); assay: pIC50, competition of probe 3 labelling in live cells; conditions: cell material: Jurkat cells
CDK10 = CDK10 (UniProt Q15131); assay: pIC50, kinobeads binding competition; conditions: cell material: Jurkat lysate
PDIK1L = PDIK1L (UniProt Q8N165); assay: pIC50, kinobeads binding competition; conditions: cell material: Jurkat lysate
MAST4 = MAST4 (UniProt O15021); assay: pIC50, kinobeads binding competition; conditions: cell material: Jurkat lysate
Sequence of MAST4 (O15021 whole entry): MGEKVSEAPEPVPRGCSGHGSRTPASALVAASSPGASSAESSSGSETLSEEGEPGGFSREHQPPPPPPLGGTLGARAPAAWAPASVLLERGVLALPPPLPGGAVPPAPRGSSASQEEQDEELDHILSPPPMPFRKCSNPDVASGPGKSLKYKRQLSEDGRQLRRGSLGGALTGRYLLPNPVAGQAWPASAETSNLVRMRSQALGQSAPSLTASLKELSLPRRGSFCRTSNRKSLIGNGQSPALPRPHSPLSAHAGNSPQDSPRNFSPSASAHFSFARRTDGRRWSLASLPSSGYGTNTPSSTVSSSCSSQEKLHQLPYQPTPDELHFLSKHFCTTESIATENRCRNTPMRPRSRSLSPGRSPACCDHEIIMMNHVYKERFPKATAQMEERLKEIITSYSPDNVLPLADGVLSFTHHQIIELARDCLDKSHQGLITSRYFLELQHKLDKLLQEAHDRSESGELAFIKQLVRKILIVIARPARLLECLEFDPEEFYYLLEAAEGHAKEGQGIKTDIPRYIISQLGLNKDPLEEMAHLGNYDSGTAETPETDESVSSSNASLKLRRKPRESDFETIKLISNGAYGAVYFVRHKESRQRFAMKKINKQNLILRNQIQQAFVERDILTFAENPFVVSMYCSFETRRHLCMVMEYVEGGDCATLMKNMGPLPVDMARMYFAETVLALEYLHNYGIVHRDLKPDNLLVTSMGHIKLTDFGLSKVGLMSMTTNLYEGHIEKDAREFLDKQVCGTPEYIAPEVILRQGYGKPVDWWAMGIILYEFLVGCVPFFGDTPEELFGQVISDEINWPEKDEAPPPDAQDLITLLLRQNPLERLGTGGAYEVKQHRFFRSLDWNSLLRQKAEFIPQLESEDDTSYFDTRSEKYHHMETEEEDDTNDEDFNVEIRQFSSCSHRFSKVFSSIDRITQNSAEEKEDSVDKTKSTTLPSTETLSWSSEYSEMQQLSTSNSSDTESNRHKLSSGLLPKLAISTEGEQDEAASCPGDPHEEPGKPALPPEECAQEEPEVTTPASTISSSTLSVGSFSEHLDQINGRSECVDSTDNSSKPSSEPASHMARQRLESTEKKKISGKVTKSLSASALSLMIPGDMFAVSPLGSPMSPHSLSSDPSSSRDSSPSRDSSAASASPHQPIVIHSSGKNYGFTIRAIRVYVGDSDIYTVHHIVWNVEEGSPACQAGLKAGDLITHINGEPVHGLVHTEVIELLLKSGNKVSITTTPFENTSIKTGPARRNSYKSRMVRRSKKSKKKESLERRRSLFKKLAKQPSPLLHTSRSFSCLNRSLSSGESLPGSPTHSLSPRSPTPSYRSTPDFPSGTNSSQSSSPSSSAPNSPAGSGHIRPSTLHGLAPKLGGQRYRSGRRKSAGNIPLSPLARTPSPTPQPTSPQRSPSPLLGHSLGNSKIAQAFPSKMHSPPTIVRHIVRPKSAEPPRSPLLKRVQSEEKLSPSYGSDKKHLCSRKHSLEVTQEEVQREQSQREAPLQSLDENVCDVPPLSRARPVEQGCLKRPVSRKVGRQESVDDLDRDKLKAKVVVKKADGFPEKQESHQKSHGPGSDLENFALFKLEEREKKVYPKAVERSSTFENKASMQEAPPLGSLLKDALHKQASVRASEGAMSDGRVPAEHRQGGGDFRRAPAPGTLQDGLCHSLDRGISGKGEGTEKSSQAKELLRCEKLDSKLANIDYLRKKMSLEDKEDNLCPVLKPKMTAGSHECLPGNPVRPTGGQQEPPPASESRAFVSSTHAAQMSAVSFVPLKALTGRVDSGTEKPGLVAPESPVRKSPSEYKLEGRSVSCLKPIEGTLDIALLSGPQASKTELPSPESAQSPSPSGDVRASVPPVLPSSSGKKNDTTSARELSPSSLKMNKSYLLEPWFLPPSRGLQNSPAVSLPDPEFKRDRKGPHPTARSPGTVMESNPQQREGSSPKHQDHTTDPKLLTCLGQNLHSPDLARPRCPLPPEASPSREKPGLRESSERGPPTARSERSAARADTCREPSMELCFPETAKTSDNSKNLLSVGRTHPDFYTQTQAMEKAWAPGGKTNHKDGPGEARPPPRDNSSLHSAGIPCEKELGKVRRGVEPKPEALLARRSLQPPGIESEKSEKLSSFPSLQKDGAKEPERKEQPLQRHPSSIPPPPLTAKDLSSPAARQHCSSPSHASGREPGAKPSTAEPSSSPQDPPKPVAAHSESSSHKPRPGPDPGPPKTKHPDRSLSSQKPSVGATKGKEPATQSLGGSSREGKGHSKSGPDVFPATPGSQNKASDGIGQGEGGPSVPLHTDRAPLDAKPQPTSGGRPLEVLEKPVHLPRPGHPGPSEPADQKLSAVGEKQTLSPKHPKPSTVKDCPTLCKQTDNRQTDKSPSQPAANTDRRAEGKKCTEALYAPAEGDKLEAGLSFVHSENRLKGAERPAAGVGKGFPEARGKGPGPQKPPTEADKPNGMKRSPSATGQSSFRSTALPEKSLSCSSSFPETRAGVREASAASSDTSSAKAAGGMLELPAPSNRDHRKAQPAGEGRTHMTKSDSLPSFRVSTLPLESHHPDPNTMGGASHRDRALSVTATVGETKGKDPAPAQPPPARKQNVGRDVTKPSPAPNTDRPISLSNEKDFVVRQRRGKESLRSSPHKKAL

MAST3 = MAST3 (UniProt O60307); assay: pIC50, kinobeads binding competition; conditions: cell material: Jurkat lysate
MAPKAPK3 = MAPKAPK3 (UniProt Q16644); assay: pIC50, kinobeads binding competition; conditions: cell material: Jurkat lysate
Sequence of MAPKAPK3 (Q16644 whole entry, looked up): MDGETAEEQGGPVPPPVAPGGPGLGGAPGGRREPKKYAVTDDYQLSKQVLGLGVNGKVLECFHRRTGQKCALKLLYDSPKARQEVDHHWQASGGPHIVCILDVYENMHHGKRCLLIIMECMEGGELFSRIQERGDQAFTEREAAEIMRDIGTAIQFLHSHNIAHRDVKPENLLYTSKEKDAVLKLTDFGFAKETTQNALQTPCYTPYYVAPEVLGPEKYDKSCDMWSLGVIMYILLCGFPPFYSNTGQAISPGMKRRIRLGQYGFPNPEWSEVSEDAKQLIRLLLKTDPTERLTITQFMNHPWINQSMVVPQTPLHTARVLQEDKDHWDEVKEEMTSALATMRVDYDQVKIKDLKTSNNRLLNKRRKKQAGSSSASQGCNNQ

PIP4K2A = molecular target: T1, PIP4K2A (UniProt P48426); assay: pIC50, kinobeads binding competition; conditions: cell material: Jurkat lysate
T1 sequence (whole entry): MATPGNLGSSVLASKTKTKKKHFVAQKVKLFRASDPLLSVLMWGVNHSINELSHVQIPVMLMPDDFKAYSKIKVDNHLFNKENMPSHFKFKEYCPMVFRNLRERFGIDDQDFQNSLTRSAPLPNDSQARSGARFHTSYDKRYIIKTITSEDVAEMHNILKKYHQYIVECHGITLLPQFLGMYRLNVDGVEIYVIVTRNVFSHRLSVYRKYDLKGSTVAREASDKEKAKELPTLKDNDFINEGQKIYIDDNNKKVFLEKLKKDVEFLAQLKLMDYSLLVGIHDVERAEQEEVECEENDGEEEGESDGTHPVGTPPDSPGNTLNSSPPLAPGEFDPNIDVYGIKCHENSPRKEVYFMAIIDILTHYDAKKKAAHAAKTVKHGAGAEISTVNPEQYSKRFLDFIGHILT

TRRAP = TRRAP (UniProt Q9Y4A5); assay: pIC50, kinobeads binding competition; conditions: cell material: Jurkat lysate
KSR1 = molecular target: T2, KSR1 (UniProt Q8IVT5); assay: pIC50, kinobeads binding competition; conditions: cell material: Jurkat lysate
T2 sequence (whole entry): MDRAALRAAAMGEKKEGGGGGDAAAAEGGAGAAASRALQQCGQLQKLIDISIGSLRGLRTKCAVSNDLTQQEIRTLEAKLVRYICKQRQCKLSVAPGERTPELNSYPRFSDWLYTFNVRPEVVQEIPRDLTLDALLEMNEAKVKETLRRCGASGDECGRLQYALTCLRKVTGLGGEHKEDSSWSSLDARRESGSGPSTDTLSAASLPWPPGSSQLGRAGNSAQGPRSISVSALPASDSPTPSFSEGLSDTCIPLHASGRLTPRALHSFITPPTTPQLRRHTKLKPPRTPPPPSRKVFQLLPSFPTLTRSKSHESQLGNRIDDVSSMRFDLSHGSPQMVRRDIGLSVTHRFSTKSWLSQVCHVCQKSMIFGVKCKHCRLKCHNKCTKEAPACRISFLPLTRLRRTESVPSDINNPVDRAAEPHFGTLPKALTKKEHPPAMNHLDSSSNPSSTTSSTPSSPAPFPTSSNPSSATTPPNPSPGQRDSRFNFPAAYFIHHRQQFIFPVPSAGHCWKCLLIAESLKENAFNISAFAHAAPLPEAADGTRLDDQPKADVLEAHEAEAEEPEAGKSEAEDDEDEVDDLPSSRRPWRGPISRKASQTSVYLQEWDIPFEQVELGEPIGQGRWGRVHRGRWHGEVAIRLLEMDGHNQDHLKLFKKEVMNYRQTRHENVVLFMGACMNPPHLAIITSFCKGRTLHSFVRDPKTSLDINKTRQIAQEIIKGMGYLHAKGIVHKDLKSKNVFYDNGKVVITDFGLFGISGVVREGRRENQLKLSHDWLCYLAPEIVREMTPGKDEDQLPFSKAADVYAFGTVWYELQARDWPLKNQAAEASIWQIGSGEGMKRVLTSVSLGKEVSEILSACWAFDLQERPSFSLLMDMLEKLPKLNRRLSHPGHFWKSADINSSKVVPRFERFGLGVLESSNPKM

PBK = molecular target: T3, PBK (UniProt Q96KB5); assay: pIC50, kinobeads binding competition; conditions: cell material: Jurkat lysate
T3 sequence (whole entry): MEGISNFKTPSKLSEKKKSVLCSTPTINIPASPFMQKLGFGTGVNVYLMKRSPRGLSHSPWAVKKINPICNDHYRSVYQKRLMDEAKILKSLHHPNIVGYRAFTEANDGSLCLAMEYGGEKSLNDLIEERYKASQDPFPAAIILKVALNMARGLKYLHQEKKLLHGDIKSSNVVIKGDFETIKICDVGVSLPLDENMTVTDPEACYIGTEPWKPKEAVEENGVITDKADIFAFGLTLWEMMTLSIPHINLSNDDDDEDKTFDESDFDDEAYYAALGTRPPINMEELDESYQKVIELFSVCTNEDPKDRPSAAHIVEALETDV

MASTL = molecular target: T4, MASTL (UniProt Q96GX5); assay: pIC50, kinobeads binding competition; conditions: cell material: Jurkat lysate
T4 sequence (whole entry): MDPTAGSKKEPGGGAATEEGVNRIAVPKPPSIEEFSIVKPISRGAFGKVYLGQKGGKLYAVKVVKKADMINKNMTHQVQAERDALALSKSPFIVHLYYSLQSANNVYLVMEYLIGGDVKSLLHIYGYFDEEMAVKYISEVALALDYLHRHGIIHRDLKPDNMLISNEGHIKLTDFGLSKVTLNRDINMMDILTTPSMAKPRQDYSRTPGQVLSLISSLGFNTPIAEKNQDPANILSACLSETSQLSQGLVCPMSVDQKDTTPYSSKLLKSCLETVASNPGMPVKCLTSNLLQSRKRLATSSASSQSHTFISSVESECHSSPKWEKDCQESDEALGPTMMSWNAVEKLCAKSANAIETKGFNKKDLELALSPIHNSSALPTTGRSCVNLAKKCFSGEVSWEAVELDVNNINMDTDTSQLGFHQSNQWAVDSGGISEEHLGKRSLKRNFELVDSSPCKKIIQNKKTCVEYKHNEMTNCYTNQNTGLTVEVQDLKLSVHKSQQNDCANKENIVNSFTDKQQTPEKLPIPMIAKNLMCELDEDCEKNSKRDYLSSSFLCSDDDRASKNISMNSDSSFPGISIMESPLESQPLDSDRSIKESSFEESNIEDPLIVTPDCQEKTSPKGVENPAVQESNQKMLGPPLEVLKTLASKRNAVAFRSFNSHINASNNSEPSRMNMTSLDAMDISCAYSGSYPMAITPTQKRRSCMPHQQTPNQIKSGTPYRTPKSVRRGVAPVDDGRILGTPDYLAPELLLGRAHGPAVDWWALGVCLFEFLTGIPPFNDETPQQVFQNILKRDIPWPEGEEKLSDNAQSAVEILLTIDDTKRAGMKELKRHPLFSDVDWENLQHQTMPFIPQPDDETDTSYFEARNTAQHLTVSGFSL

PIK3R4 = PIK3R4 (UniProt Q99570); assay: pIC50, kinobeads binding competition; conditions: cell material: Jurkat lysate
Sequence of PIK3R4 (Q99570 whole entry): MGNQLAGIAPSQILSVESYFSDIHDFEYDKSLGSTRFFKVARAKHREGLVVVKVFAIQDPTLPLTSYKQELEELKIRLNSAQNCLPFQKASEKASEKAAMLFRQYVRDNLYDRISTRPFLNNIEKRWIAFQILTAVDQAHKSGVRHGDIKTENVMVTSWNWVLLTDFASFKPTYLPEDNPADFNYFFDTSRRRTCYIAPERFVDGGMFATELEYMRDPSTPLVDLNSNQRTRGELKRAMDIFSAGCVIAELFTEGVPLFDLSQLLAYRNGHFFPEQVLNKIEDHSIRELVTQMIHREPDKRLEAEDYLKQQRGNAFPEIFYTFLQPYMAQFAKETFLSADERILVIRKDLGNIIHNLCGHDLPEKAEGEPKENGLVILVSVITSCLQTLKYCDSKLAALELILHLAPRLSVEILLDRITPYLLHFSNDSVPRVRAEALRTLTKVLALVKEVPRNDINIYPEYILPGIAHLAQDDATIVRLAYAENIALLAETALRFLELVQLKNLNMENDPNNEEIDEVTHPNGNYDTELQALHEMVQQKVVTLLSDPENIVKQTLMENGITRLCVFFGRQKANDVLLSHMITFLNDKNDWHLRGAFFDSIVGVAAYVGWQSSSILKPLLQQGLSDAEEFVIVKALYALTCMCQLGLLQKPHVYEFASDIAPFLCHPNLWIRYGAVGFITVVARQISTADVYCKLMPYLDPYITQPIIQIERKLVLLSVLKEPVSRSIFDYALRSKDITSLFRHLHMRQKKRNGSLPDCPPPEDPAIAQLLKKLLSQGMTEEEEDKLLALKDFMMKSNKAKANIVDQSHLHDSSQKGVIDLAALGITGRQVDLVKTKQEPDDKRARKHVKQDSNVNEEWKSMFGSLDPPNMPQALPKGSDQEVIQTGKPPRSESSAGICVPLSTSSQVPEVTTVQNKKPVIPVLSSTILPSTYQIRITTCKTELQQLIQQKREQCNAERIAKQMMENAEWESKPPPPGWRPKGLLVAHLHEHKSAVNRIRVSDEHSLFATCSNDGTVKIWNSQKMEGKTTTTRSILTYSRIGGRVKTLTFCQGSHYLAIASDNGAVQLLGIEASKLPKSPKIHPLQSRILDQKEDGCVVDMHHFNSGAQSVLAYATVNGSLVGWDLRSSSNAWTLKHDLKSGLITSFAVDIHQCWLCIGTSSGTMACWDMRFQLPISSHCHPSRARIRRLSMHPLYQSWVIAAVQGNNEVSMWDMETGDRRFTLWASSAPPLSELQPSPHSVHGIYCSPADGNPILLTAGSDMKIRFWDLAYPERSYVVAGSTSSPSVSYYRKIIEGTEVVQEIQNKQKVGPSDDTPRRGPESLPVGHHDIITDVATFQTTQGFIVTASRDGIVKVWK

UniProt Q5TCX8 = assay: pIC50, kinobeads binding competition; conditions: cell material: Jurkat lysate

Sequence of SPR (P35270 whole entry, looked up): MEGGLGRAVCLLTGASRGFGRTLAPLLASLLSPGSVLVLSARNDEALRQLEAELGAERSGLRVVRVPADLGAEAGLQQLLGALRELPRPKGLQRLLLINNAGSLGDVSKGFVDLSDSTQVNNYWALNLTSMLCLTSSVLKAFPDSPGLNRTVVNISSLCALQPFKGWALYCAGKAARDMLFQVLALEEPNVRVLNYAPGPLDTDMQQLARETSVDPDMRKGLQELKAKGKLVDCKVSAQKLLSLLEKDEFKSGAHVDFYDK
Sequence of PDIK1L (Q8N165 whole entry): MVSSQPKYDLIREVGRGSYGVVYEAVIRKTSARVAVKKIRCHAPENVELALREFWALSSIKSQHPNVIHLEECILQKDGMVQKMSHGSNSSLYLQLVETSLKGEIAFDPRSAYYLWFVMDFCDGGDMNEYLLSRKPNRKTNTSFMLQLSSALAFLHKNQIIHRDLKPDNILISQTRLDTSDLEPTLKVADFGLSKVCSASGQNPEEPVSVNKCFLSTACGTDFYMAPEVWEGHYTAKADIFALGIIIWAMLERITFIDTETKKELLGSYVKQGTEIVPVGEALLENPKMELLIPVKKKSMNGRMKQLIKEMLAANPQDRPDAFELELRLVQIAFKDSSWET

Row | Compound | pIC50 (SPR) | pIC50 (CDK10) | pIC50 (PDIK1L) | pIC50 (MAST4) | pIC50 (MAST3) | pIC50 (MAPKAPK3) | pIC50 (PIP4K2A) | pIC50 (TRRAP) | pIC50 (KSR1) | pIC50 (PBK) | pIC50 (MASTL) | pIC50 (PIK3R4) | pIC50 (UniProt Q5TCX8)
1 | Cc1c(C(=O)N2CCN(CC(F)(F)F)CC2)cnn1-c1nn2cccc2c(=O)[nH]1 [QM385] | 7.61 ± 0.34 |  |  |  |  |  |  |  |  |  |  |  | 
2 | Cc1nc(Nc2ncc(C(=O)Nc3c(C)cccc3Cl)s2)cc(N2CCN(CCO)CC2)n1 [dasatinib] |  | < 4.52 | 4.89 ± 0.099 | < 4.52 | < 4.52 | 6.74 | < 4.52 | < 4.52 | 4.72 | < 4.52 | < 4.52 | < 4.52 | < 4.52
